This is an account of results in patent publication US7709495B2, “Methods and reagents for the treatment of inflammatory disorders” (CombinatoRx, Incorporated, priority 2003, dated 2010).

Assay [1] relates to TNFα secretion. In words: TNFα secretion assay (ELISA), phorbol 12-myristate 13-acetate/ionomycin stimulated white blood cells. Format: cell-based. To be noted: Homo sapiens, PBMC, read-out: % Inhibition TNFα PBMC PI. On the procedure:
(§1) The compound dilution matrix was assayed for the suppression of phorbol 12-myristate 13 acetate/ionomycin stimulated IL-1 and TNFα secretion as well as the suppression of lipopolysaccharide-stimulated TNFα secretion from human white blood cells using the ELISA method, as described below.
(§2) A stock solution containing prednisolone (0.36 mg/ml) was prepared in DMSO. A stock solution containing ibudilast (1.84 mg/ml) was prepared in DMSO. Master plates were prepared for dilutions of the stock solutions above.
(§3) The final single agent plates were generated by transferring 1 μL of stock solution from the specific master plate to separate dilution plates containing 99 μL of media (RPMI; Gibco BRL, #11875-085), 10% fetal bovine serum (Gibco BRL, #25140-097), 2% penicillin/streptomycin (Gibco BRL, #15140-122)) using the Packard Mini-Trak liquid handler. The dilution plates were then mixed and a 10 μL aliquot transferred from each dilution plate to the final assay plate (polystyrene 384-well plate (NalgeNunc)), which had been pre-filled with 30 μL/well RPMI media containing 33 ng/mL phorbol 12-myristate 13-acetate (Sigma, P-1585) and 2.475 ng/mL ionomycin (Sigma, I-0634) or alternatively for the LPS stimulated assay RPMI media containing 2 μg/ml lipopolysaccharide (Sigma, L-4130).
(§4) The effects of test compound combinations on TNFα secretion were assayed in white blood cells from human buffy coat stimulated with phorbol 12-myistate 13-acetate, or lipopolysaccharide as follows. Human white blood cells from buffy coat were diluted 1:50 in media (RPMI; Gibco BRL, #11875-085), 10% fetal bovine serum (Gibco BRL, #25140-097), 2% penicillin/streptomycin (Gibco BRL, #15140-122)) and 50 μL of the diluted white blood cells were placed in each well of the final assay plate created in the above section. After 16-18 hours of incubation at 37° C. with 5% CO2 in a humidified incubator, the plate was centrifuged and the supernatant transferred to a white opaque polystyrene 384 well plate (NalgeNunc, Maxisorb) coated with an anti-TNFα antibody (PharMingen, #551220). After a two-hour incubation, the plate was washed (Tecan Powerwasher 384) with PBS containing 0.1% Tween 20 and incubated for one additional hour with biotin labeled anti-TNFα antibody (PharMingen, #554511) and HRP coupled to streptavidin (PharMingen, #13047E). The plate was then washed again with 0.1% Tween 20/PBS. An HRP-luminescent substrate was added to each well, and the light intensity of each well was measured using a plate luminometer.
(§5) The percent inhibition (% I) for each well was calculated using the following formula: % I=[(avg. untreated wells−treated well)/(avg. untreated wells)]×100
(§6) The average untreated well value (avg. untreated wells) is the arithmetic mean of 30 wells from the same assay plate treated with vehicle alone.
TNFα secretion was measured by ELISA as described above after stimulation with phorbol 12-myristate 13-acetate and ionomycin. The effects of varying concentrations of ibudilast, prednisolone and a combination of ibudilast and prednisolone were compared to control wells.

For assay [2], the system named is TNFα secretion. In words: TNFα secretion assay (ELISA), lipopolysaccharide stimulated white blood cells. The format is cell-based. To be noted: Homo sapiens, PBMC, read-out: % Inhibition TNFα PBMC LPS. On the procedure:
as §1, §2, §3, §4, §5, §6
TNFα secretion was measured by ELISA as described above after stimulation with lipopolysaccharide. The effects of varying concentrations of ibudilast, prednisolone and a combination of ibudilast and prednisolone were compared to control wells.

As to `CC(C)C(=O)c1c(C(C)C)nn2ccccc12` [Ibudilast, ibudilast], the inhibition at 0.062 µM with TNFα secretion [1] (ibudilast 0.062 μM alone) is 2.8%; in the assay on TNFα secretion [2] (ibudilast 0.062 μM alone), 17%. Besides, the values for the inhibition at 0.12 µM with TNFα secretion [1] (ibudilast 0.12 μM alone) and in the assay with TNFα secretion [2] (ibudilast 0.12 μM alone) were 2.5% and 24%, respectively. Further, the values for the inhibition at 0.25 µM with TNFα secretion [1] (ibudilast 0.25 μM alone) and in the assay on TNFα secretion [2] (ibudilast 0.25 μM alone) were 6.5% and 41%, respectively. Also, the inhibition at 0.5 µM in the assay on TNFα secretion [1] (ibudilast 0.5 μM alone) worked out at 18%; in the assay with TNFα secretion [2] (ibudilast 0.5 μM alone), 46%. In addition, the results for the inhibition at 1 µM with TNFα secretion [1] (ibudilast 1 μM alone) and in the assay with TNFα secretion [2] (ibudilast 1 μM alone) were 28% and 58%, respectively. The inhibition at 2 µM stood at 31% in the assay with TNFα secretion [1] (ibudilast 2 μM alone) and 66% with TNFα secretion [2] (ibudilast 2 μM alone). Also, the inhibition at 4 µM with TNFα secretion [1] (ibudilast 4 μM alone) was found to be 33%; in the assay on TNFα secretion [2] (ibudilast 4 μM alone) it was 70%. The results for the inhibition at 8 µM in the assay on TNFα secretion [1] (ibudilast 8 μM alone) and in the assay on TNFα secretion [2] (ibudilast 8 μM alone) were 40% and 79%, respectively.
Turning to `C[C@]12C=CC(=O)C=C1CC[C@@H]1[C@@H]2[C@@H](O)C[C@@]2(C)[C@H]1CC[C@]2(O)C(=O)CO` [Prednisolone, prednisolone], the figures for the inhibition at 0.0078 µM with TNFα secretion [1] (prednisolone 0.0078 μM alone) and in the assay with TNFα secretion [2] (prednisolone 0.0078 μM alone) were 12% and 0.085%, respectively. For the same molecule, the inhibition at 0.016 µM in the assay on TNFα secretion [1] (prednisolone 0.016 μM alone) and in the assay with TNFα secretion [2] (prednisolone 0.016 μM alone) was 17% throughout. The inhibition at 0.031 µM in the assay with TNFα secretion [1] (prednisolone 0.031 μM alone) came out at 22%; in the assay with TNFα secretion [2] (prednisolone 0.031 μM alone), 24%. The inhibition at 0.062 µM with TNFα secretion [1] (prednisolone 0.062 μM alone) was found to be 22%; in the assay with TNFα secretion [2] (prednisolone 0.062 μM alone), 47%. The inhibition at 0.12 µM in the assay with TNFα secretion [1] (prednisolone 0.12 μM alone) turned out to be 29%; with TNFα secretion [2] (prednisolone 0.12 μM alone), 57%. The inhibition at 0.25 µM in the assay with TNFα secretion [1] (prednisolone 0.25 μM alone) is 32%; in the assay with TNFα secretion [2] (prednisolone 0.25 μM alone), 66%. Moreover, the inhibition at 0.5 µM with TNFα secretion [1] (prednisolone 0.5 μM alone) was found to be 33%; with TNFα secretion [2] (prednisolone 0.5 μM alone) it was 68%. In addition, the inhibition at 1 µM in the assay on TNFα secretion [1] (prednisolone 1 μM alone) amounted to 36%; in the assay on TNFα secretion [2] (prednisolone 1 μM alone) it was 70%.
